The target of experiment [1] is T1, HDPXU17 receptor (P2Y-like receptor) (Homo sapiens, UniProt Q96G91).
T1 construct: expressed in transfected cells; host or cells: HEK 293 cells stably expressing the MREIIVIPII luciferase reporter gene, transiently transfected with pCDN-HDPXU17 DNA (Lipofectamine)
T1 sequence (Q96G91 1-374): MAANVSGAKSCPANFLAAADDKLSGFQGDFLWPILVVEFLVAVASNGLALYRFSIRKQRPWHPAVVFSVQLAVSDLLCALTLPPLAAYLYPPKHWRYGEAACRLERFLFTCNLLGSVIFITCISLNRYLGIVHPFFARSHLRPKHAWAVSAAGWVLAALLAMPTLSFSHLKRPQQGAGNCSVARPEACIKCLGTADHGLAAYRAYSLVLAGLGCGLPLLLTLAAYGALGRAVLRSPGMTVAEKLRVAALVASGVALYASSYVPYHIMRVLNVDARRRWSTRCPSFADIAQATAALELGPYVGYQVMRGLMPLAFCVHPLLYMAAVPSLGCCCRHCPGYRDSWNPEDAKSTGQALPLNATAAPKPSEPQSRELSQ
Briefly: Gs reporter gene luciferase assay, HEK 293 cells stably expressing the luciferase reporter, transfected with HDPXU17 DNA. The format is cell-based. The following applies: for luciferase activity: concentration ranges from 3-300,000 nM, HDPXU17-transfected HEK 293 reporter cells, result in words; for EC50: luciferase activity, HEK 293 MREIIVIPII reporter cells transfected with HDPXU17, 3-300,000 nM. The source says: (§1) The Gs reporter gene luciferase assay for orphan G-protein coupled receptors has been developed using a recombinant construct MREIVIPII plasmid, which has been disclosed European Patent Application No. 0 863 214, published on Sep. 9, 1998. This assay utilizes a luciferase gene fused to three copies of multiple response elements (MREs), one copy of cAMP response element (CRE) and the basal promoter of the vasointestinal peptide (VIP) gene to specifically monitor protein kinase A activation that results from an increase in intracellular cAMP. The system is not sensitive to activation of protein kinase C pathways. Rather, it responds to increases in cAMP mediated by endogenous and recombinant Gs-coupled GPCR activation with up to 120-fold increases in luciferase activity.
(§2) The assay begins when HEK 293 cells stably expressing the MREIIVIPII luciferase reporter gene were seeded at 4,500,000 per flask and incubated overnight at 37° C. The next day, solutions A (4 ug of pCDN-HDPXU17DNA was added to 0.8 ml EMEM without serum) and B (23.1 ul Lipofectamine was mixed in 0.8 ml EMEM without serum) were prepared, mixed together and incubated 30 min at room temperature. During the incubation, the culture medium was aspirated from cells and replaced with 12.5 ml serum-free EMEM. Next, the DNA and Lipofectamine mixture was added to the cells and incubated at 37° C. for 6 hours. After 6 hours, 13 ml of EMEM containing 10% FBS was added to the cells and incubated overnight at 37° C. The next day, the 96-well plates were pretreated with 1× Matrixgel solution at 50 ul/well for one hour. Then, the matrixgel solution and plate cells were aspirated at 2000-4000 cells/well. After overnight incubation at 37° C., 5-20 ul /well of the test compounds were added to the 96-well plates and incubated at 37° C. After 6 hours, the medium of each well was aspirated, 25 ul of 1×PBS without calcium and magnesium was added, the plates were frozen at -70° C. Then, the plates were allowed to thaw. Luc-lite solution (25 ul/well) was added and luciferase activity was measured by TopCount HTS.
In stable HDPXU17-expressing 293 cells(clone 20#) cells transiently transfected with MREIIVIPII plasmid, similar results are obtained.

The target of experiment [2] is T1, HDPXU17 receptor (P2Y-like receptor). Put plainly: Gs reporter gene luciferase assay, stable HDPXU17-expressing 293 cells (clone 20#) transiently transfected with MREIIVIPII plasmid. Type of experiment: cell-based. Conditions: for EC50: luciferase activity, stable HDPXU17-expressing 293 cells (clone 20#) transiently transfected with MREIIVIPII plasmid.
Text: as §1
as §2, with “HTS. […]” for “HTS.”

Entries after “also recorded” stand apart in the source; their conditions may differ.

Regarding `Nc1ccn([C@H]2C[C@H](O)[C@@H](COP(=O)(O)OP(=O)(O)OP(=O)(O)O)O2)c(=O)n1` [dCTP], the luciferase activity result in experiment [1] is “no effect on luciferase activity”.

Take `Cc1cn([C@H]2C[C@H](O)[C@@H](COP(=O)(O)OP(=O)(O)OP(=O)(O)O)O2)c(=O)[nH]c1=O` [dTTP]: the luciferase activity result in experiment [1] is recorded as “no effect on luciferase activity”.

Broadly, the EC50 is the concentration that produces a half-maximal response. Take `Nc1ncnc2c1ncn2[C@H]1C[C@H](O)[C@@H](COP(=O)(O)OP(=O)(O)OP(=O)(O)O)O1` [dATP, deoxyadenosine triphosphate]: in experiment [1] (based on results in both transient and stable HDPXU17 cells), the “best ligand for HDPXU 17 receptor” value is “appears to be the best ligand for HDPXU 17 receptor”. For the same molecule, in experiment [1], the luciferase activity entry is “increase luciferase activity only in cells transfected with the HDPXU17 receptor” and it took 17.3 µM to reach a half-maximal effect (EC50). Also, the concentration for a half-maximal effect (EC50) in experiment [2] came to 4.05 µM.

As for `Nc1ncnc2c1ncn2[C@H]1C[C@H](O)[C@@H](COP(=O)(O)O)O1` [dAMP, deoxyadenosine monophosphate], in experiment [1], the luciferase activity result was “increase luciferase activity only in cells transfected with the HDPXU17 receptor” and the EC50 was 105 µM. The molecule further displayed an EC50 in experiment [2] of 200 µM.

Take `O=c1ccn([C@@H]2O[C@H](COP(=O)(O)OP(=O)(O)OP(=O)(O)O)[C@@H](O)[C@H]2O)c(=O)[nH]1` [UTP, uridine triphosphate]: the luciferase activity entry is listed as “increase luciferase activity only in cells transfected with the HDPXU17 receptor; also recorded: specific, but weak” in experiment [1] and “still weak, but specific” in experiment [2] (stable HDPXU17-expressing 293 cells (clone 20#), result in words).

Take `Nc1nc2c(ncn2[C@H]2C[C@H](O)[C@@H](COP(=O)(O)OP(=O)(O)OP(=O)(O)O)O2)c(=O)[nH]1` [dGTP]: the luciferase activity result in experiment [1] is given as “no effect on luciferase activity”.

Source of the values: US6114127A, “Methods of screening for agonists and antagonists of the HDPXU17 receptor” (SmithKline Beecham Corporation, priority 1998, dated 2000).
